Results taken from patent US20260183277A1, “ANTIVIRAL PHARMACEUTICAL COMPOSITION COMPRISING ERRy INHIBITOR AS ACTIVE INGREDIENT” (priority 2024, published 2026).
Read-outs that look alike come from different tables or passages of the source.

Legend:
PSaV Cowden strain = experiment: microbe, parasite or virus in culture; type: cell-based, porcine sapovirus; conditions: Sapporo virus, MOI=0.1 FFU, viral yield in cell supernatant, read-out: half-maximal inhibitory concentration (IC50)
[1] = test system: influenza A virus (IAV) PR8 strain; type: cell-based
BCoV KWD strain = type: cell-based, bovine coronavirus; conditions: maximum dose of 20 μM
PEDV QIAP1401 strain = type: cell-based, porcine epidemic diarrhea coronavirus; conditions: maximum dose of 20 μM
SARS-CoV-2 KCDC03 strain = experiment: SARS-CoV-2 KCDC03 challenge of Syrian hamsters; type: in vivo; conditions: for reduction of gross lung lesions, individual therapy: strain not stated
[2] = test system: human SREBP1c gene promoter; type: cell-based; conditions: cells infected with each individual virus; 20 μM
[3] = test system: SREBP1c, SREBP1a, FASN, DGAT1, SCD1; type: cell-based
[4] = test system: intracellular triacylglycerol (TAG); type: cell-based; conditions: virus-infected cells; 20 μM
[5] = test system: SARS-CoV-2-infected cells; experiment: Double-membrane vesicle / dsRNA formation by TEM and confocal microscopy; type: cell-based
SARS-CoV-2 S protein = type: cell-based
IAV HA protein = type: cell-based, influenza A virus
[6] = test system: intracellular fatty acid oxidation (FAO); type: cell-based
[7] = test system: SARS-CoV-2-infected Vero E6 cells; experiment: Eicosanoid and cytokine ELISA in SARS-CoV-2-infected Vero E6 cells; type: cell-based, monkey
IAV-infected A549 cells = type: cell-based, human
free fatty acids (FFA) = type: cell-based
[8] = Lung distribution after administration to animals; conditions: in vivo experiments
Excerpt: […]. […] […]

[9] = mice
ERRγ = molecular target: T1, ERRγ (Homo sapiens, UniProt P62508); conditions: compared with lead compound GSK5182; cited from earlier work
T1 sequence (P62508 1-458): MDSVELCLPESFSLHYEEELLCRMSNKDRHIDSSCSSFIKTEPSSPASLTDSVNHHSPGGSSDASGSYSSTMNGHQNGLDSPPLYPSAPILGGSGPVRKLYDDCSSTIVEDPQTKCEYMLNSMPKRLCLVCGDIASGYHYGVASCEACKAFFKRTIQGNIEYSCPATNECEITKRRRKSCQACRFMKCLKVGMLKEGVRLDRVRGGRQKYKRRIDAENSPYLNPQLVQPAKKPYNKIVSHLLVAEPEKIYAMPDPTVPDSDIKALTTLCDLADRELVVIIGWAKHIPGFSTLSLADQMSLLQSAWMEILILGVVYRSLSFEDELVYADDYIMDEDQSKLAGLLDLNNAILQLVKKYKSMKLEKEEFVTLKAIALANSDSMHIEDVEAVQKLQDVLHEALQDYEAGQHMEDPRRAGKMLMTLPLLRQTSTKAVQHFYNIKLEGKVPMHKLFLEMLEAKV

ROS = type: cell-based
ERRγ promoter = type: cell-based
[10] = test system: c-Jun occupancy on the AP1 regulatory element site of the ERRγ promoter; type: cell-based

For `CC(C)N1CCN(c2ccc(/C(=C(/CCCO)c3ccccc3)c3ccc(O)cc3)cc2)CC1` [DN200434], the IC50 (PSaV Cowden strain) was 6.24 ± 1.07 µM, the “viral genome replication, progeny production, and protein synthesis of IAV” value [1] was “dose-dependent suppression” and the “reduction in viral genome copy numbers” value (BCoV KWD strain) was “more than 2.0 log 10 steps”. The “reduction in viral titers” value (BCoV KWD strain) was “more than 2.0 log 10 steps”, the “reduction in viral genome copy numbers” value (PEDV QIAP1401 strain) was “more than 2.0 log 10 steps” and the “reduction in viral titers” value (PEDV QIAP1401 strain) was “more than 2.0 log 10 steps”. For the same compound, the “reduction in gross lung lesions” value (SARS-CoV-2 KCDC03 strain; 40 mg kg^−1 d^−1 i.p., twice a day for four and a half days, vs virus-challenged, vehicle-treated control) was 92%, the “reduction of gross lung lesions, individual therapy” value (SARS-CoV-2 KCDC03 strain; DN200434 40 mg kg^−1 d^−1 alone (combination study)) was 50% and the “IFN-α and IFN-β levels in BALF” value (SARS-CoV-2 KCDC03 strain; hamsters, i.p., vs vehicle-treated controls) was “no effect”. For the same compound, the “activity of the SREBP1c gene promoter” value [2] was “markedly suppressed”, the “SREBP1c expression activated by individual virus infections” value [3] was “reduced” and the “basal level of SREBP1a mRNA” value ([3]; 20 μM) was “not affected”. The “lipogenic gene activation (FASN, DGAT1, SCD1 mRNA)” value ([3]; 20 μM) was “effectively attenuated”, the “lipid accumulation (intracellular TAG)” value [4] was “effectively attenuated” and the “SARS-CoV-2-induced perinuclear DMV clusters containing viral double-stranded RNA” value ([5]; TEM and confocal microscopy) was “significant reduction”. For the same compound, the “number of progeny viral particles” value ([5]; TEM, vs vehicle-treated virus-infected cells) was “notable reduction”, the “palmitoylation of SARS-CoV-2 S protein” value (SARS-CoV-2 S protein) was “significantly inhibited” and the “palmitoylation of IAV HA proteins” value (IAV HA protein) was “significantly inhibited”. The “energy production through 3-oxidation in the mitochondria from the FFA substrate” value [6] was “inhibited”, the “IFN-α and IFN-β levels” value ([7]; SARS-CoV-2-infected Vero cells) was “remained unchanged” and the “TNF-α, IL-6, and MCP-1 levels” value ([7]; SARS-CoV-2-infected Vero cells) was “significantly reduced”. The “levels of PGE2 and LTB4” value ([7]; SARS-CoV-2-infected cells) was “significantly reduced”, the “levels of PGE2 and LTB4” value (IAV-infected A549 cells) was “significantly reduced” and the “proinflammatory cytokines IFN-α, IFN-β, TNF-α, IL-6, and MCP-1” value (IAV-infected A549 cells) was “significant suppression”. The “synthesis of representative fatty acids induced by infection” value (free fatty acids (FFA)) was “significantly interrupted”, the “level of selected FFA” value (free fatty acids (FFA); 20 μM) was “either restored the level of selected FFA to that of mock control cells or decreased it below mock control levels” and the “detection in the lungs via the bloodstream” value [8] was “detected in sufficient quantities in the lungs”. For the same compound, the “gross or histopathological changes in vital organs (liver, lung, kidney, heart, spleen)” value [9] was “did not result in gross or histopathological changes”, the signs of toxicity ([9]; i.p. 20 mg kg^−1 d^−1, 14 days) was “did not induce any signs of toxicity” and the signs of toxicity (Syrian hamsters, i.p. 40 mg kg^−1 d^−1, 14 days) was “did not induce any signs of toxicity”. For the same compound, the “gross or histopathological changes in vital organs (liver, lung, kidney, heart, spleen)” value (hamsters) was “did not result in gross or histopathological changes” and the “functional IC50 relative to GSK5182” value (ERRγ) was 12 fold.
For `CC(=O)N[C@@H](CS)C(=O)O` [NAC, N-acetylcysteine], the “virus-induced ROS generation” value (ROS) was “significantly suppressed”, the “virus-induced activation of ERRγ promoter and ERRγ expression” value (ERRγ promoter) was “attenuated” and the “virus-increased occupancy of c-Jun on the AP1 regulatory element site of the ERRγ promoter” value [10] was “markedly blocked”.
In the case of `CCC(CC)COC(=O)[C@H](C)N[P@](=O)(OC[C@H]1O[C@@](C#N)(c2ccc3c(N)ncnn23)[C@H](O)[C@@H]1O)Oc1ccccc1` [remdesivir, reference compound], the “reduction of gross lung lesions, individual therapy” value (SARS-CoV-2 KCDC03 strain; remdesivir 2.5 mg kg^−1 d^−1 alone) is reported as 20%.
